Experimental findings from patent US12612409B2, “Pyrrolopyrimidines as CFTR potentiators” (Cystic Fibrosis Foundation, priority 2016, dated 2026) are described below.

Structures are written as SMILES.

The target of assay [1] is T1, recombinant F508del V470 CFTR in Fischer rat thyroid (FRT) cells (Homo sapiens, UniProt P13569, DEL508-508).
T1 construct: expressed in transfected cells
The assay can be described thus: FRT ion flux assay of F508del CFTR potentiation. In kind it is cell-based. The following applies: FRT cells expressing F508del V470 CFTR, forskolin 20 uM, 27° C. pre-incubation. In short, it runs like this:
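FRT cells co-expressing F508del V470 CFTR and halide-sensitive YFP, temperature-corrected at 27° C for 16-24 h, then treated 30 min with compound plus 20 uM forskolin. Iodide addition quenches YFP, read after ~21 s; ratio scaled to DMSO (0%) and positive control potentiator (100%).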

In assay [2] the target is T2, CFTR in F508del/F508del primary CF hBE cells (Homo sapiens, UniProt P13569, DEL508-508).
T2 construct: Primary cystic fibrosis human bronchial epithelial (CF hBE) cells were expanded and cultured; endogenous in cells; host or cells: primary CF human bronchial epithelial cells, genotype F508del/F508del
The assay can be described thus: Ussing chamber electrophysiology assay of CFTR potentiation in F508del/F508del CF bronchial epithelial cells (27° C.). In kind it is cell-based. An excerpt:
• SHELXTL, Version 5.1, Bruker AXS, 1997. • PLATON, A. L. Spek, J. Appl. Cryst. 2003, 36, 7-13. • MERCURY, C. F. Macrae, P. R. Edington, P. McCabe, E. Pidcock, G. P. Shields, R. Taylor, M. Towler and J. van de Streek, J. Appl. Cryst. 39, 453-457, 2006. • OLEX2, Dolomanov, O. V.; Bourhis, L. J.; Gildea, R. J.; Howard, J. A. K.; Puschmann, H., (2009). J. Appl. Cryst., 42, 339-341. • R. W. W. Hooft et al. J. Appl. Cryst. (2008). 41. 96-103. • H. D. Flack, Acta Cryst. 1983, A39, 867-881. Using Chamber Electrophysiology Assay of CFTR Potentiation in CF Bronchial Epithelial Cells
Primary cystic fibrosis human bronchial epithelial (CF hBE) cells were expanded and cultured according to published methods (Neuberger et al., Ch. 4 of Cystic Fibrosis, Methods in Molecular Biology vol. 741, pp. 39-54 (2011)). Well-differentiated cells (>30 days at air/liquid interface) on Snapwell filters (Corning Costar, cat. no. 3801) were mounted in Ussing chambers (Physiologic Instruments, Inc., San Diego, CA). […] HEPES buffered physiological saline (composition (in mM): 137 NaCl, 4 KCl, 1 MgCl2, 1.8 CaCl2), 10 HEPES Na) was used in both apical and basolateral chambers. Chambers were bubbled with air to promote mixing and the voltage was clamped to zero. Amiloride (30 uM), forskolin (10 uM), test compound (4 increasing concentrations), and CFTRinh-172 (20 uM) were added sequentially with 20-25 minutes between additions. Short-circuit currents were acquired and analyzed using LabScribe2. Test compound responses were scaled relative to responses for DMSO (0%) and the maximal response of a positive control potentiator (100%).

T2 sequence (P13569 with tags, fused parts or gaps DEL508-508): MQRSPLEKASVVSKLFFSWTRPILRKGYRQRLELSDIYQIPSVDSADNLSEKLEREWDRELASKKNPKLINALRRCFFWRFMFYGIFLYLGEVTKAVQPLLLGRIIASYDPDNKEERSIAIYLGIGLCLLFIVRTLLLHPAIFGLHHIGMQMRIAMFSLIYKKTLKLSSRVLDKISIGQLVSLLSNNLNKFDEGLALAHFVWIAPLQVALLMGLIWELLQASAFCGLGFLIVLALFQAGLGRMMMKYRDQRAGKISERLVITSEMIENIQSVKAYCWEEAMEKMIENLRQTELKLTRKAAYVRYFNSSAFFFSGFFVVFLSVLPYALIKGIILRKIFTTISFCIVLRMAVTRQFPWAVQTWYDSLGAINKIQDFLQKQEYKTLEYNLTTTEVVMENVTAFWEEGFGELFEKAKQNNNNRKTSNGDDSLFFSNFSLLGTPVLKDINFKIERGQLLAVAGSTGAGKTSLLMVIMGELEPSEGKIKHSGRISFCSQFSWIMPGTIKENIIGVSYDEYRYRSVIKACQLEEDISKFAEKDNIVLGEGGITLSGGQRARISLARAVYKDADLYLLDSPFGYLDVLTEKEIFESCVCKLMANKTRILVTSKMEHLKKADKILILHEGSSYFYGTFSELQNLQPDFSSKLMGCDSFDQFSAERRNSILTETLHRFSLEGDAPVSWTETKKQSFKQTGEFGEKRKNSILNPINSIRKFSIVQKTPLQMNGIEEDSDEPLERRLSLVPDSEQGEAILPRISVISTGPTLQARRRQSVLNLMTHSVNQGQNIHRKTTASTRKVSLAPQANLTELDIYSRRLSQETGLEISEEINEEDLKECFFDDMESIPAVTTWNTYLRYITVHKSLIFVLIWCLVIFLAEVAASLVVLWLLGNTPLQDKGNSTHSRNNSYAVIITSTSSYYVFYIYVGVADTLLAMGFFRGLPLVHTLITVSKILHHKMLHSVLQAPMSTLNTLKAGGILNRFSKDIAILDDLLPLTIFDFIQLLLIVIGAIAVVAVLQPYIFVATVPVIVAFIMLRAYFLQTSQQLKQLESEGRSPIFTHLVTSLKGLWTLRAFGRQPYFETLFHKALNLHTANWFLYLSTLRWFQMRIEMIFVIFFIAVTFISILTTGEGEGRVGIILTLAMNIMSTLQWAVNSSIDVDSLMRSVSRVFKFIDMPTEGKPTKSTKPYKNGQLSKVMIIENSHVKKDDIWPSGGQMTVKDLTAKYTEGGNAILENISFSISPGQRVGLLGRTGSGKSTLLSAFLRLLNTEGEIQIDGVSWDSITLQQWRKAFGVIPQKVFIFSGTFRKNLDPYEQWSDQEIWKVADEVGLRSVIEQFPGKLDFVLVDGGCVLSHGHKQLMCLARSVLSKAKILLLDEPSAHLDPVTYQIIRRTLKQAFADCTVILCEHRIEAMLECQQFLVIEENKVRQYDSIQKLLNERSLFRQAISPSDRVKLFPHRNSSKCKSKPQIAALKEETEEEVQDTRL
T1 sequence (P13569 with tags, fused parts or gaps DEL508-508): as above

Usually EC50 stands for the concentration at which the effect is half-maximal. On to `COc1cccnc1-c1cn(Cc2cn(-c3ccccc3F)nn2)c2ncnc(N)c12` [Example 207, 7-{[1-(2-fluorophenyl)-1H-1,2,3-triazol-4-yl]methyl}-5-(3-methoxypyridin-2-yl)-7H-pyrrolo[2,3-d]pyrimidin-4-amine], for which the EC50 is 226 nM in assay [1] and 238 nM in assay [2].

As for `COc1nccnc1-c1cn(Cc2cn(-c3ccccc3F)nn2)c2ncnc(N)c12` [Example 296, 7-{[1-(2-Fluorophenyl)-1H-1,2,3-triazol-4-yl]methyl}-5-(3-methoxypyrazin-2-yl)-7H-pyrrolo[2,3-d]pyrimidin-4-amine], the 50% effective concentration (EC50) in assay [1] came out at 124 nM; in assay [2], 50.3 nM.

Take `Cc1c(-c2ccc(Cl)cc2)c2c(N)ncnc2n1C(C)c1cc(-c2ccccc2F)no1` (centres unmarked) [Example 259, 5-(4-Chlorophenyl)-7-{1-[3-(2-fluorophenyl)-1,2-oxazol-5-yl]ethyl}-6-methyl-7H-pyrrolo[2,3-d]pyrimidin-4-amine]: the figures for the EC50 in assay [1] and in assay [2] were 206 nM and 52 nM, respectively.

Take `CC(c1cnc(-c2ccccc2F)[nH]1)n1cc(-c2ccc(C(F)(F)F)nc2)c2c(N)ncnc21` (centres unmarked) [Example 64, 7-{1-[2-(2-Fluorophenyl)-1H-imidazol-5-yl]ethyl}-5-[6-(trifluoromethyl)pyridin-3-yl]-7H-pyrrolo[2,3-d]pyrimidin-4-amine]: the concentration for a half-maximal effect (EC50) in assay [1] was determined as 80 nM; in assay [2], 80.3 nM.

Consider `CCC(c1cn(-c2ccc(F)cc2F)nn1)n1cc(-c2cncnc2OC)c2c(N)ncnc21` (single isomer, unassigned; enantiomer 2) [Example 160, (−) 7-{1-[1-(2,4-Difluorophenyl)-1H-1,2,3-triazol-4-yl]propyl}-5-(4-methoxypyrimidin-5-yl)-7H-pyrrolo[2,3-d]pyrimidin-4-amine, enantiomer 2], for which the EC50 in assay [1] is 452 nM; in assay [2] it was 593 nM.

As to `CC(C)(c1cn(-c2ccccc2F)nn1)n1cc(-c2ccc(Cl)cc2)c2c(N)ncnc21` [Example 256, 5-(4-Chlorophenyl)-7-{2-[1-(2-fluorophenyl)-1H-1,2,3-triazol-4-yl]propan-2-yl}-7H-pyrrolo[2,3-d]pyrimidin-4-amine], the EC50 in assay [1] worked out at 341 nM; in assay [2] it was 45 nM.

In the case of `CCC(c1cn(-c2ccccc2F)nn1)n1cc(-c2nccnc2OC)c2c(N)ncnc21` (single isomer, unassigned; enantiomer 1) [Example 135, (−) 7-{1-[1-(2-Fluorophenyl)-1H-1,2,3-triazol-4-yl]propyl}-5-(3-methoxypyrazin-2-yl)-7H-pyrrolo[2,3-d]pyrimidin-4-amine, enantiomer 1], the figures for the EC50 in assay [1] and in assay [2] were 203 nM and 65.2 nM, respectively.

With `CCC(c1cn(-c2ccccc2F)nn1)n1cc(-c2ccc(Cl)cc2)c2c(N)ncnc21` (centres unmarked) [Example 211, 5-(4-Chlorophenyl)-7-{1-[1-(2-fluorophenyl)-1H-1,2,3-triazol-4-yl]propyl}-7H-pyrrolo[2,3-d]pyrimidin-4-amine], the values for the EC50 in assay [1] and in assay [2] were 109 nM and 25.9 nM, respectively.

`CCC(c1cn(-c2ccc(F)c(F)c2)nn1)n1cc(-c2cnc(C(F)F)nc2)c2c(N)ncnc21` (single isomer, unassigned; enantiomer 2) [Example 313, 5-[2-(Difluoromethyl)pyrimidin-5-yl]-7-{1-[1-(3,4-difluorophenyl)-1H-1,2,3-triazol-4-yl]propyl}-7H-pyrrolo[2,3-d]pyrimidin-4-amine, enantiomer 2]: the values for the EC50 in assay [1] and in assay [2] were 74.9 nM and 131 nM, respectively.

`COc1ncc(-c2cn(C(C)c3cc(-c4ccccc4F)no3)c3ncnc(N)c23)cn1` (single isomer, unassigned; (+)) [Example 184, (+) 7-{1-[3-(2-fluorophenyl)-1,2-oxazol-5-yl]ethyl}-5-(2-methoxypyrimidin-5-yl)-7H-pyrrolo[2,3-d]pyrimidin-4-amine]: the 50% effective concentration (EC50) in assay [1] turned out to be 49.7 nM; in assay [2], 32.6 nM.

For `CCC(c1cn(-c2ccccc2F)nn1)n1cc(-c2cc(F)cnc2OC)c2c(N)ncnc21` (single isomer, unassigned; enantiomer 2) [Example 140, (−) 5-(5-Fluoro-2-methoxypyridin-3-yl)-7-{1-[1-(2-fluorophenyl)-1H-1,2,3-triazol-4-yl]propyl}-7H-pyrrolo[2,3-d]pyrimidin-4-amine, enantiomer 2], the EC50 in assay [1] turned out to be 171 nM; in assay [2], 63 nM.

As to `CCC(c1cn(-c2ccccc2F)nn1)n1cc(-c2cncnc2OC)c2c(N)ncnc21` (centres unmarked) [Example 244, 7-{1-[1-(2-Fluorophenyl)-1H-1,2,3-triazol-4-yl]propyl}-5-[4-methoxypyrimidin-5-yl]-7H-pyrrolo[2,3-d]pyrimidin-4-amine], the EC50 is 34.1 nM in assay [1] and 61.6 nM in assay [2].

Take `CC(C)n1cc(Cn2cc(-c3ccc(Cl)cc3)c3c(N)ncnc32)cn1` [Example 254, 5-(4-Chlorophenyl)-7-{[1-(propan-2-yl)-1H-pyrazol-4-yl]methyl}-7H-pyrrolo[2,3-d]pyrimidin-4-amine]: the EC50 in assay [1] was determined as 422 nM; in assay [2], 140 nM.

In the case of `CCC(c1cnn(-c2ccc(F)cc2F)c1)n1c(C#N)c(-c2cnc(C(F)(F)F)nc2)c2c(N)ncnc21` (single isomer, unassigned) [Example 20, 4-Amino-7-{1-[1-(2,4-difluorophenyl)-1H-pyrazol-4-yl]propyl}-5-[2-(trifluoromethyl)pyrimidin-5-yl]-7H-pyrrolo[2,3-d]pyrimidine-6-carbonitrile], the figures for the concentration for a half-maximal effect (EC50) in assay [1] and in assay [2] were 14.1 nM and 5.48 nM, respectively.

With `COc1ncccc1-c1cn(Cc2cnn(-c3c(F)cccc3F)c2)c2ncnc(N)c12` [Example 286, 7-{[1-(2,6-Difluorophenyl)-1H-pyrazol-4-yl]methyl}-5-(2-methoxypyridin-3-yl)-7H-pyrrolo[2,3-d]pyrimidin-4-amine], the figures for the 50% effective concentration (EC50) in assay [1] and in assay [2] were 81 nM and 176 nM, respectively.

Take `CCC(c1cn(-c2ccccc2F)nn1)n1c(C#N)c(-c2ccc(OC(F)F)nc2)c2c(N)ncnc21` (single isomer, unassigned) [Example 24, 4-Amino-5-[6-(difluoromethoxy)pyridin-3-yl]-7-{1-[1-(2-fluorophenyl)-1H-1,2,3-triazol-4-yl]propyl}-7H-pyrrolo[2,3-d]pyrimidine-6-carbonitrile]: the EC50 in assay [1] was 21.5 nM; in assay [2] it was 30 nM.

With `Cc1ccc(-c2cn(C(C)c3cnc(-c4ccccc4F)[nH]3)c3ncnc(N)c23)cc1F` (centres unmarked) [Example 68, 5-(3-Fluoro-4-methylphenyl)-7-{1-[2-(2-fluorophenyl)-1H-imidazol-5-yl]ethyl}-7H-pyrrolo[2,3-d]pyrimidin-4-amine], the half-maximal effective concentration (EC50) in assay [1] came to 112 nM; in assay [2] it was 26.1 nM.

Turning to `COc1ncccc1-c1cn(Cc2nnc(-c3ccccc3F)[nH]2)c2ncnc(N)c12` [Example 253, 7-{[5-(2-Fluorophenyl)-4H-1,2,4-triazol-3-yl]methyl}-5-(2-methoxypyridin-3-yl)-7H-pyrrolo[2,3-d]pyrimidin-4-amine], the EC50 in assay [1] stood at 719 nM; in assay [2], 1340 nM.

As to `CCC(c1cn(-c2ccc(F)c(F)c2)nn1)n1cc(-c2cc(F)cnc2OC)c2c(N)ncnc21` (single isomer, unassigned; enantiomer 1) [Example 155, 7-{1-[1-(3,4-Difluorophenyl)-1H-1,2,3-triazol-4-yl]propyl}-5-(5-fluoro-2-methoxypyridin-3-yl)-7H-pyrrolo[2,3-d]pyrimidin-4-amine, enantiomer 1], the concentration giving a half-maximal response (EC50) was 38.6 nM in assay [1] and 9.17 nM in assay [2].
